Values after ≈ are worked out from the molar mass of the structure shown. Values joined by “and” are separate entries in the source; they are usually repeats but may differ in a detail not shown here. Equal values may be shown once. Read-outs that look alike come from different tables or passages of the source.
Tests used:
M. kansasii = experiment: microbe, parasite or virus in culture; assay type: cell-based; settings: Mycobacterium kansasii
M. marseiliense = experiment: microbe, parasite or virus in culture; assay type: cell-based; settings: Mycobacterium
M. bovis = experiment: microbe, parasite or virus in culture; assay type: cell-based; settings: Mycobacterium tuberculosis variant bovis
[1] = test system: clinically isolated MDR, XDR, and TDR M. tuberculosis strains; experiment: microbe, parasite or virus in culture; assay type: cell-based; settings: Mycobacterium tuberculosis
M. aubagnense = experiment: microbe, parasite or virus in culture; assay type: cell-based, Mycobacterium aubagnense; settings: Mycolicibacterium aubagnense
M. gilvum = experiment: microbe, parasite or virus in culture; assay type: cell-based, Mycobacterium gilvum; settings: Mycolicibacterium gilvum
M. marinum = experiment: microbe, parasite or virus in culture; assay type: cell-based; settings: Mycobacterium marinum
M. xenopi = experiment: microbe, parasite or virus in culture; assay type: cell-based; settings: Mycobacterium xenopi
M. kyorinense = experiment: microbe, parasite or virus in culture; assay type: cell-based; settings: Mycobacterium kyorinense
M. massiliense = experiment: microbe, parasite or virus in culture; assay type: cell-based, Mycobacterium massiliense; settings: Mycobacteroides abscessus
M. heraklionease = experiment: microbe, parasite or virus in culture; assay type: cell-based; settings: Mycobacterium
M. peregrinum = experiment: microbe, parasite or virus in culture; assay type: cell-based, Mycobacterium peregrinum; settings: Mycolicibacterium peregrinum
M. conceptionense = experiment: microbe, parasite or virus in culture; assay type: cell-based, Mycobacterium conceptionense; settings: Mycolicibacterium senegalense
M. fortuitum = experiment: microbe, parasite or virus in culture; assay type: cell-based, Mycobacterium fortuitum; settings: Mycolicibacterium fortuitum
M. smegmatis = experiment: microbe, parasite or virus in culture; assay type: cell-based, Mycobacterium smegmatis; settings: Mycolicibacterium smegmatis
in vitro [2] = assay type: cell-based, murine; settings: mouse
Procedure: (§1) A549 human pulmonary epithelial cells (KCLB 10185), human embryonic kidney (HEK) 293 cells (KCLB 21573), human THP-1 leukemia cells (KCLB 40202), human neuroblastoma SH-SY5Y cells (KCLB 22266), Murine Raw 264.7 macrophages (KCLB 40071), and L929 murine fibroblasts (KCLB 10001) were purchased from the KCLB (Seoul, Korea). Cytotoxicity testing was performed using the MTT assay and the WST-1 cell viability assay as previously described.

M. tuberculosis H37Ra = experiment: microbe, parasite or virus in culture; assay type: cell-based, Mycobacterium tuberculosis; settings: Mycobacterium tuberculosis, H37RA
[3] = test system: XDR M. tuberculosis (KMRC 00203–00197); assay type: cell-based, Mycobacterium tuberculosis; settings: for log reduction (CFU): 7 days
in vitro [4] = assay type: cell-based; settings: human
Procedure: as §1

| Compound | MIC (M. kansasii) | MIC (M. marseiliense) | MIC (M. bovis) | MIC ([1]; TDR-1) | MIC ([1]; TDR-2) | MIC ([1]; TDR-3) | MIC (M. aubagnense) | MIC (M. gilvum) | MIC (M. marinum) | MIC (M. xenopi) | MIC (M. kyorinense) | MIC (M. massiliense) | MIC (M. heraklionease) | MIC (M. peregrinum) | MIC (M. conceptionense) | MIC (M. fortuitum) | MIC (M. smegmatis) | other results |
| --- | --- | --- | --- | --- | --- | --- | --- | --- | --- | --- | --- | --- | --- | --- | --- | --- | --- | --- |
| [H]/N=C(/N)N[C@H]1[C@H](O)[C@@H](O)[C@H](O[C@@H]2O[C@@H](C)[C@](O)(C=O)[C@H]2O[C@@H]2O[C@@H](CO)[C@H](O)[C@@H](O)[C@@H]2NC)[C@@H](N/C(N)=N\[H])[C@@H]1O [STR, streptomycin] | 0.2 µg/mL (≈ 0.344 µM) | 25 µg/mL (≈ 43 µM) | 0.4 µg/mL (≈ 0.688 µM) | 50 µg/mL (≈ 86 µM) | > 100 µg/mL | 50 µg/mL (≈ 86 µM) | > 100 µg/mL | 0.2 µg/mL (≈ 0.344 µM) | < 0.1 µg/mL | 0.2 µg/mL (≈ 0.344 µM) | 0.8 µg/mL (≈ 1.38 µM) | 0.8 µg/mL (≈ 1.38 µM) | 50 µg/mL (≈ 86 µM) | 3.1 µg/mL (≈ 5.33 µM) | 3.1 µg/mL (≈ 5.33 µM) | 6.3 µg/mL (≈ 10.8 µM) | 0.2 µg/mL (≈ 0.344 µM) |  |
| COC(=O)[C@@H]1CCC(=O)N1Cc1cc2ccc(OCc3ccccc3)cc2c2cc(OC)c(OC)cc12 [PP3S, Methyl (S)-1-{[3-(Benzyloxy)-6,7-dimethoxy-9-phenanthryl]methyl}-5-oxopyrrolidine-2-carboxylate] | > 100 µg/mL | > 100 µg/mL | 3.12 µg/mL (≈ 6.25 µM) | 0.8 µg/mL (≈ 1.6 µM) | 1.6 µg/mL (≈ 3.2 µM) | 0.8 µg/mL (≈ 1.6 µM) | > 100 µg/mL | > 100 µg/mL | > 100 µg/mL | > 100 µg/mL | > 100 µg/mL | > 100 µg/mL | > 100 µg/mL | > 100 µg/mL | > 100 µg/mL | > 100 µg/mL | > 100 µg/mL | CC50 (in vitro [2]; L929): > 500 µg/mL; CC50 (in vitro [2]; Raw264.7): > 500 µg/mL; MIC (M. tuberculosis H37Ra): 1.6 µg/mL (≈ 3.2 µM); CFU (log) [3]: 4.83 and 4.91; CFU (replicates1-3), single values [3]: 41000 CFU and 66100 CFU and 72200 CFU and 71300 CFU and 95100 CFU and 88700 CFU and 98900 CFU and 41200 CFU and 40500 CFU and 105000 CFU and 75800 CFU and 72700 CFU and 52300 CFU and 61000 CFU and 63200 CFU and 62900 CFU and 137000 CFU and 98200 CFU; log reduction (CFU) ([3]; at 0.8 μg/ml): 0.5; log reduction (CFU) ([3]; at 1.6 μg/ml): 0.6; CC50 (in vitro [4]; A549): > 500 µg/mL; CC50 (in vitro [4]; HEK-293): 7.8 µg/mL (≈ 15.6 µM); CC50 (in vitro [4]; SH-SY5Y): 7.8 µg/mL (≈ 15.6 µM); CC50 (in vitro [4]; THP-1): > 500 µg/mL |

From article PMC9154192 (PLoS Biology, 2022)
